Reference: PubChem BioAssay (NCI)
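Where inhibition never reached the appropriate level, the endpoint shown equals the highest concentration tested. Otherwise, values were interpolated linearly from a five-concentration, 48-hour dose response in 96-well plates. Here, GI50 denotes the concentration required for 50% inhibition of growth. TGI: total growth inhibition.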

Key:
Experiment in all cases: NCI anticancer screen, dose series, 48 h
[1] = tested on: 786-0 renal
[2] = tested on: A498 renal
[3] = tested on: A549 NSCLC
[4] = tested on: ACHN renal
[5] = tested on: BT-549 breast
[6] = tested on: CAKI-1 renal
[7] = tested on: CCRF-CEM leukemia
[8] = tested on: COLO 205 colon
[9] = tested on: DU-145 prostate
[10] = tested on: EKVX NSCLC
[11] = tested on: HCC-2998 colon
[12] = tested on: HCT-116 colon
[13] = tested on: HCT-15 colon
[14] = tested on: HL-60(TB) leukemia
[15] = tested on: HOP-62 NSCLC
[16] = tested on: HOP-92 NSCLC
[17] = tested on: HS 578T breast
[18] = tested on: HT29 colon
[19] = tested on: IGROV1 ovarian
[20] = tested on: K-562 leukemia
[21] = tested on: KM12 colon
[22] = tested on: LOX IMVI melanoma
[23] = tested on: M14 melanoma
[24] = tested on: MALME-3M melanoma
[25] = tested on: MCF7 breast
[26] = tested on: MDA-MB-231 breast
[27] = tested on: MDA-MB-435
[28] = tested on: MDA-MB-468 breast
[29] = tested on: MOLT-4 leukemia
[30] = tested on: NCI-H226 lung
[31] = tested on: NCI-H23 lung
[32] = tested on: NCI-H460 lung
[33] = tested on: NCI-H522 lung
[34] = tested on: NCI/ADR-RES ovarian
[35] = tested on: OVCAR-3 ovarian
[36] = tested on: OVCAR-4 ovarian
[37] = tested on: OVCAR-5 ovarian
[38] = tested on: OVCAR-8 ovarian
[39] = tested on: PC-3 prostate
[40] = tested on: RPMI-8226 leukemia
[41] = tested on: RXF 393 renal
[42] = tested on: SF-268 CNS
[43] = tested on: SF-295 CNS
[44] = tested on: SF-539 CNS
[45] = tested on: SK-MEL-2 melanoma
[46] = tested on: SK-MEL-28 melanoma
[47] = tested on: SK-MEL-5 melanoma
[48] = tested on: SK-OV-3 ovarian
[49] = tested on: SN12C renal
[50] = tested on: SNB-19 CNS
[51] = tested on: SNB-75 CNS
[52] = tested on: SR leukemia
[53] = tested on: SW-620 colon
[54] = tested on: T-47D breast
[55] = tested on: TK-10 renal
[56] = tested on: U251 CNS
[57] = tested on: UACC-257 melanoma
[58] = tested on: UACC-62 melanoma
[59] = tested on: UO-31 renal

COc1cc(-c2nc3cc(Cl)c(Cl)cc3[nH]2)ccc1OCc1nnc(-c2ccc(Br)cc2)o1
GI50 [1]: 3.55 µM | TGI [1]: 13.1 µM | GI50 [2]: 2.9 µM | TGI [2]: 9.17 µM | GI50 [3]: 7.14 µM | TGI [3]: > 100 µM | GI50 [4]: 2.19 µM | TGI [4]: 4.99 µM | GI50 [5]: 3.2 µM | TGI [5]: 7.74 µM | GI50 [6]: 13 µM | TGI [6]: 28.3 µM | GI50 [7]: 6.07 µM | TGI [7]: > 100 µM | GI50 [8]: 24.6 µM | TGI [8]: > 100 µM | GI50 [9]: 10.1 µM | TGI [9]: > 100 µM | GI50 [10]: 13.3 µM | TGI [10]: > 100 µM | GI50 [11]: 29.2 µM | TGI [11]: > 100 µM | GI50 [12]: 4.43 µM | TGI [12]: 31.7 µM | GI50 [13]: 2.53 µM | TGI [13]: 7.36 µM | GI50 [14]: 2.61 µM | TGI [14]: 7.52 µM | GI50 [15]: 4.17 µM | TGI [15]: 17.8 µM | GI50 [16]: 2.35 µM | TGI [16]: 7.81 µM | GI50 [17]: 2.72 µM | TGI [17]: 8.27 µM | GI50 [18]: 3.61 µM | TGI [18]: > 100 µM | GI50 [19]: 11.5 µM | TGI [19]: > 100 µM | GI50 [20]: 4.8 µM | TGI [20]: > 100 µM | GI50 [21]: 52 µM | TGI [21]: > 100 µM | GI50 [22]: 2.93 µM | TGI [22]: 10.8 µM | GI50 [23]: 6.68 µM | TGI [23]: 25.3 µM | GI50 [24]: 3.25 µM | TGI [24]: 16.4 µM | GI50 [25]: 3.28 µM | TGI [25]: 27.5 µM | GI50 [26]: 2.22 µM | TGI [26]: 5.3 µM | GI50 [27]: 3.97 µM | TGI [27]: 20 µM | GI50 [28]: 5.98 µM | TGI [28]: 28.4 µM | GI50 [29]: 3.72 µM | TGI [29]: > 100 µM | GI50 [30]: 1.82 µM | TGI [30]: 4.81 µM | GI50 [31]: 4.99 µM | TGI [31]: > 100 µM | GI50 [32]: 6.43 µM | TGI [32]: > 100 µM | GI50 [33]: 4.53 µM | TGI [33]: > 100 µM | GI50 [34]: 3.42 µM | TGI [34]: > 100 µM | GI50 [35]: 3.33 µM | TGI [35]: 10.9 µM | GI50 [36]: 1.92 µM | TGI [36]: 4.12 µM | GI50 [37]: 5.59 µM | TGI [37]: > 100 µM | GI50 [38]: 2.85 µM | TGI [38]: 7.78 µM | GI50 [39]: 4.27 µM | TGI [39]: > 100 µM | GI50 [40]: 2.68 µM | TGI [40]: 8.25 µM | GI50 [41]: 1.87 µM | TGI [41]: 4.61 µM | GI50 [42]: 6.22 µM | TGI [42]: > 100 µM | GI50 [43]: 3.13 µM | TGI [43]: 10.7 µM | GI50 [44]: 1.81 µM | TGI [44]: 3.51 µM | GI50 [45]: 15.7 µM | TGI [45]: 35 µM | GI50 [46]: 3.59 µM | TGI [46]: 19 µM | GI50 [47]: 3.16 µM | TGI [47]: 13.2 µM | GI50 [48]: 11.5 µM | TGI [48]: 38.3 µM | GI50 [49]: 2.56 µM | TGI [49]: 7.33 µM | GI50 [50]: 14.7 µM | TGI [50]: > 100 µM | GI50 [51]: 1.56 µM | TGI [51]: 3.87 µM | GI50 [52]: 2.21 µM | TGI [52]: 5.9 µM | GI50 [53]: 5.07 µM | TGI [53]: > 100 µM | GI50 [54]: 2.06 µM | TGI [54]: 4.95 µM | GI50 [55]: 4.37 µM | TGI [55]: 17.5 µM | GI50 [56]: 3.82 µM | TGI [56]: 20 µM | GI50 [57]: 11.7 µM | TGI [57]: 35.6 µM | GI50 [58]: 3.05 µM | TGI [58]: 13.5 µM | GI50 [59]: 1.89 µM | TGI [59]: 4.61 µM
